Assay results published in PubChem BioAssay AID248 (DTP/NCI, 2004).
Values joined by “and” are separate entries in the source; they are usually repeats but may differ in a detail not shown here. Identical values can stand only once. Inconclusive results and toxic doses are left out. No stated cut-off is given here; in the data, active means T/C of 150% or more; inactive means T/C below 125%.

System: L1210 leukemia ip in BDF1 mice, survival T/C
Assay: NCI In Vivo Anticancer Drug Screen. Data for tumor model L1210 Leukemia (intraperitoneal) in B6D2F1 (BDF1) mice
Conditions: endpoint: mean survival time, higher = longer survival
Summary of the method: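 Tumor cells were implanted, animals were treated, and survival was followed. The result divides the treated measurement by the vehicle-control measurement.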

[1] = dose: 50.0 mg/kg/injection, schedule: Q01DX009 (ip), vehicle: saline
[2] = dose: 100.0 mg/kg/injection, schedule: Q01DX001 (ip), vehicle: Klucel (hydroxypropylcellulose) (HPC)
[3] = dose: 200.0 mg/kg/injection, schedule: Q01DX001 (ip), vehicle: Klucel (hydroxypropylcellulose) (HPC)

Measured: T/C

CC(=O)Nc1ncnn1C(C)=O
inactive: [1] 97 % of control | dose: 100.0 mg/kg/injection, schedule: Q01DX009 (ip), vehicle: saline 96 % of control | dose: 100.0 mg/kg/injection, schedule: Q04DX003 (ip), vehicle: saline 98 % of control | dose: 200.0 mg/kg/injection, schedule: Q01DX009 (ip), vehicle: saline 97 % of control | dose: 200.0 mg/kg/injection, schedule: Q04DX003 (ip), vehicle: saline 95 % of control

CCC(=O)n1c(=O)n(C2CCN(CCCS(=O)(=O)c3ccccc3)CC2)c2ccccc21
inactive: dose: 50.0 mg/kg/injection, schedule: Q01DX001 (ip), vehicle: Klucel (hydroxypropylcellulose) (HPC) 95 % of control | [2] 95 % of control | [3] 100 % of control

COc1cc(C=Nc2ccc(-n3ccnc3C)cc2)ccc1N(CCCl)CCCl
inactive: dose: 1.0 mg/kg/injection, schedule: Q01DX009 (ip), vehicle: Klucel (hydroxypropylcellulose) (HPC) 110 % of control | dose: 2.0 mg/kg/injection, schedule: Q01DX009 (ip), vehicle: Klucel (hydroxypropylcellulose) (HPC) 114 % of control | dose: 2.5 mg/kg/injection, schedule: Q01DX009 (ip), vehicle: Klucel (hydroxypropylcellulose) (HPC) 104 % of control and 106 % of control | dose: 3.8 mg/kg/injection, schedule: Q01DX009 (ip), vehicle: Klucel (hydroxypropylcellulose) (HPC) 104 % of control | dose: 5.0 mg/kg/injection, schedule: Q01DX009 (ip), vehicle: Klucel (hydroxypropylcellulose) (HPC) 114 % of control | dose: 8.8 mg/kg/injection, schedule: Q04DX003 (ip), vehicle: Klucel (hydroxypropylcellulose) (HPC) 98 % of control and 123 % of control | dose: 19.0 mg/kg/injection, schedule: Q01DX009 (ip), vehicle: Klucel (hydroxypropylcellulose) (HPC) 110 % of control | dose: 20.0 mg/kg/injection, schedule: Q01DX009 (ip), vehicle: Klucel (hydroxypropylcellulose) (HPC) 124 % of control | dose: 29.0 mg/kg/injection, schedule: Q04DX003 (ip), vehicle: Klucel (hydroxypropylcellulose) (HPC) 102 % of control | dose: 30.0 mg/kg/injection, schedule: Q04DX003 (ip), vehicle: Klucel (hydroxypropylcellulose) (HPC) 104 % of control

CC1(C)N=C(N)N=C(N)N1c1ccc(OCCNS(=O)(=O)c2ccc(S(=O)(=O)F)cc2)c(Cl)c1
inactive: dose: 100.0 mg/kg/injection, schedule: Q04DX003 (ip), vehicle: saline with Tween-80 105 % of control

CC1(C)CC(C)(c2ccc(-n3c(-c4ccccc4)nc4ccccc4c3=O)cc2)c2ccccc2S1 (configuration not stated)
inactive: dose: 100.0 mg/kg/injection, schedule: Q01DX001 (ip), vehicle: saline 91 % of control | dose: 200.0 mg/kg/injection, schedule: Q01DX001 (ip), vehicle: saline 91 % of control | dose: 400.0 mg/kg/injection, schedule: Q01DX001 (ip), vehicle: saline 87 % of control

CC(=O)OCC1OC([S][Sb]([CH3])[CH3])C(OC(C)=O)C(OC(C)=O)C1OC(C)=O (configuration not stated)
inactive: dose: 12.5 mg/kg/injection, schedule: Q01DX009 (ip), vehicle: Klucel (hydroxypropylcellulose) (HPC) 96 % of control | dose: 25.0 mg/kg/injection, schedule: Q01DX009 (ip), vehicle: Klucel (hydroxypropylcellulose) (HPC) 102 % of control | dose: 50.0 mg/kg/injection, schedule: Q01DX009 (ip), vehicle: Klucel (hydroxypropylcellulose) (HPC) 93 % of control

Oc1ccc(-c2nc3ccccc3s2)cc1
inactive: [2] 105 % of control | [3] 113 % of control | dose: 400.0 mg/kg/injection, schedule: Q01DX001 (ip), vehicle: Klucel (hydroxypropylcellulose) (HPC) 111 % of control

CCC(c1ccc2cc(OC)ccc2c1)C(C)(C)C(=O)F (configuration not stated)
inactive: dose: 25.0 mg/kg/injection, schedule: Q01DX009 (ip), vehicle: saline 94 % of control | dose: 31.3 mg/kg/injection, schedule: Q01DX Z (sc), vehicle: steriod suspending solution 107 % of control | dose: 50.0 mg/kg/injection, schedule: Q01DX001 (ip), vehicle: steriod suspending solution 98 % of control | [1] 100 % of control | dose: 62.5 mg/kg/injection, schedule: Q01DX Z (sc), vehicle: steriod suspending solution 110 % of control | dose: 100.0 mg/kg/injection, schedule: Q01DX001 (ip), vehicle: steriod suspending solution 96 % of control | dose: 100.0 mg/kg/injection, schedule: Q04DX003 (ip), vehicle: acetone 94 % of control | dose: 125.0 mg/kg/injection, schedule: Q01DX Z (sc), vehicle: steriod suspending solution 108 % of control | dose: 250.0 mg/kg/injection, schedule: Q01DX Z (sc), vehicle: steriod suspending solution 108 % of control

CC1=CC(=O)C(CO)=CC1=O
inactive: dose: 0.09 mg/kg/injection, schedule: Q01DX009 (ip), vehicle: saline with Tween-80 93 % of control | dose: 0.18 mg/kg/injection, schedule: Q01DX009 (ip), vehicle: saline with Tween-80 97 % of control | dose: 0.37 mg/kg/injection, schedule: Q01DX009 (ip), vehicle: saline with Tween-80 104 % of control | dose: 3.0 mg/kg/injection, schedule: Q01DX009 (ip), vehicle: other 105 % of control | dose: 3.0 mg/kg/injection, schedule: Q04DX002 (ip), vehicle: other 107 % of control | dose: 6.0 mg/kg/injection, schedule: Q01DX009 (ip), vehicle: other 91 % of control | dose: 6.0 mg/kg/injection, schedule: Q04DX002 (ip), vehicle: other 96 % of control | dose: 12.5 mg/kg/injection, schedule: Q04DX002 (ip), vehicle: other 86 % of control

CC(=O)Nc1cc(Cl)c2[nH]cnc2n1
inactive: dose: 88.0 mg/kg/injection, schedule: Q01DX001 (ip), vehicle: Klucel (hydroxypropylcellulose) (HPC) 100 % of control | [2] 101 % of control | dose: 100.0 mg/kg/injection, schedule: Q04DX003 (ip), vehicle: water 110 % of control | dose: 133.0 mg/kg/injection, schedule: Q01DX001 (ip), vehicle: Klucel (hydroxypropylcellulose) (HPC) 90 % of control | [3] 95 % of control | dose: 200.0 mg/kg/injection, schedule: Q04DX003 (ip), vehicle: water 115 % of control | dose: 300.0 mg/kg/injection, schedule: Q01DX001 (ip), vehicle: Klucel (hydroxypropylcellulose) (HPC) 97 % of control

O=C(OCCCl)Oc1c(Cl)cc([N+](=O)[O-])cc1[N+](=O)[O-]
inactive: dose: 100.0 mg/kg/injection, schedule: Q04DX003 (ip), vehicle: Klucel (hydroxypropylcellulose) (HPC) 101 % of control | dose: 200.0 mg/kg/injection, schedule: Q04DX003 (ip), vehicle: Klucel (hydroxypropylcellulose) (HPC) 101 % of control | dose: 400.0 mg/kg/injection, schedule: Q04DX003 (ip), vehicle: Klucel (hydroxypropylcellulose) (HPC) 86 % of control

NC(=S)N/N=C/c1nc2ccccc2[nH]c1=O
inactive: dose: 26.0 mg/kg/injection, schedule: Q03HX032 (ip), vehicle: saline with Tween-80 90 % of control and 91 % of control | dose: 40.0 mg/kg/injection, schedule: Q03HX032 (ip), vehicle: saline with Tween-80 95 % of control and 87 % of control | dose: 60.0 mg/kg/injection, schedule: Q03HX032 (ip), vehicle: saline with Tween-80 88 % of control and 90 % of control | dose: 90.0 mg/kg/injection, schedule: Q03HX032 (ip), vehicle: saline with Tween-80 94 % of control and 89 % of control | dose: 135.0 mg/kg/injection, schedule: Q03HX032 (ip), vehicle: saline with Tween-80 89 % of control

NC(N)=NCCCC(NC(=O)OCc1ccccc1)C(=O)Nc1ccc2ccccc2c1 (configuration not stated)
inactive: dose: 100.0 mg/kg/injection, schedule: Q01DX009 (ip), vehicle: Klucel (hydroxypropylcellulose) (HPC) 102 % of control | dose: 200.0 mg/kg/injection, schedule: Q01DX009 (ip), vehicle: Klucel (hydroxypropylcellulose) (HPC) 103 % of control

C[AsH](C)CC[AsH](C)C.C[AsH](C)CC[AsH](C)C.C[AsH](C)CC[AsH](C)C.[Ni]
inactive: dose: 25.0 mg/kg/injection, schedule: Q04DX002 (ip), vehicle: saline 103 % of control | dose: 50.0 mg/kg/injection, schedule: Q04DX002 (ip), vehicle: saline 109 % of control

CC1C[N+](C)(C)CC(C)C1=O (configuration not stated)
inactive: dose: 12.5 mg/kg/injection, schedule: Q04DX002 (ip), vehicle: saline with Tween-80 96 % of control | dose: 25.0 mg/kg/injection, schedule: Q04DX002 (ip), vehicle: saline with Tween-80 107 % of control | dose: 50.0 mg/kg/injection, schedule: Q04DX002 (ip), vehicle: saline with Tween-80 93 % of control
